Measured values: US20240158446A1, “CYCLIC COMPOUND HAVING SELECTIVE INHIBITORY ACTION ON KRAS OVER HRAS AND NRAS” (CHUGAI SEIYAKU KABUSHIKI KAISHA, priority 2021, published 2024)
Read-outs that look alike come from different tables or passages of the source. Where a SMILES comes first, the peptide text is derived from it. Bridges are numbered along the chain shown (N, C = ends). [ ]: non-standard residue; d: D form. The star is where a group is joined. hPhe(3-Cl-4-CF3) = N[C@@H](CCc1ccc(C(F)(F)F)c(Cl)c1)C(=O)O; NPrPhe(4-CF3) = CCCN[C@@H](Cc1ccc(C(F)(F)F)cc1)C(=O)O; NMeGly(cPent) = CN[C@H](C(=O)O)C1CCCC1; Pro(4S-Me) = C[C@@H]1CN[C@H](C(=O)O)C1; NMeD = CN[C@@H](CC(=O)O)C(=O)O; NMeL = CN[C@@H](CC(C)C)C(=O)O; Morpholide = C1CN(*)CCO1; Ac5c = NC1(C(=O)O)CCCC1; Sar = CNCC(=O)O

Key:
[1] = biological target: GDP-bound KRAS wild-type protein (Homo sapiens, UniProt P01116); assay: Binding to KRAS by surface plasmon resonance (SPR), Single Cycle Kinetics; details: GDP-bound KRAS wild-type protein, read-out: KRAS KD
[2] = biological target: GDP-bound NRAS wild-type protein (Homo sapiens, UniProt P01111); assay: Binding to NRAS by surface plasmon resonance (SPR), Single Cycle Kinetics; details: for NRAS/KRAS (ratio of KD value with respect to NRAS to KD value with respect to KRAS) / NRAS/KRAS (ratio of KD value for NRAS to KD value for KRAS): SPR, GDP-bound NRAS wild-type protein vs GDP-bound KRAS wild-type protein
[3] = biological target: GDP-bound HRAS wild-type protein (Homo sapiens, UniProt P01112); assay: Binding to HRAS by surface plasmon resonance (SPR), Single Cycle Kinetics; details: for HRAS/KRAS (ratio of KD value with respect to HRAS to KD value with respect to KRAS) / HRAS/KRAS (ratio of KD value for HRAS to KD value for KRAS): SPR, GDP-bound HRAS wild-type protein vs GDP-bound KRAS wild-type protein
[4] = SPR Single Cycle Kinetics, 1:1 binding model

GDP-bound KRAS wild-type protein, sequence (P01116 whole entry): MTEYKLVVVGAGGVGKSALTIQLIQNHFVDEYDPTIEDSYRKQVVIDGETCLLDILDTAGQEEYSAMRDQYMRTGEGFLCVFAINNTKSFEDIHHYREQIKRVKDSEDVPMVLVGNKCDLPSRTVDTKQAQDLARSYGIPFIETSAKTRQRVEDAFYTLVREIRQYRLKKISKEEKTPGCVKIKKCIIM
GDP-bound NRAS wild-type protein, sequence (P01111 whole entry): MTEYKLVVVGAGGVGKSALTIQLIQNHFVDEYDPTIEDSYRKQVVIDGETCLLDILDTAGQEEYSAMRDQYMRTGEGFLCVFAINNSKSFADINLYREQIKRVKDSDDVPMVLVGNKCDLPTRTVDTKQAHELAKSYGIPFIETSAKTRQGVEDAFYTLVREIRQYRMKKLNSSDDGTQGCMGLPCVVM
GDP-bound HRAS wild-type protein, sequence (P01112 whole entry): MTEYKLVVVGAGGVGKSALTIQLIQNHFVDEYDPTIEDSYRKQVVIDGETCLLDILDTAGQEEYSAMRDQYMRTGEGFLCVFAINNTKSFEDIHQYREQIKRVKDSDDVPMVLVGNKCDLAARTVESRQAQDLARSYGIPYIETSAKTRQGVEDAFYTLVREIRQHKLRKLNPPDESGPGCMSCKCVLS

SMILES	Kd [1, 4] [nM]	Kd ([1]; SPR, Single Cycle Kinetics) [nM]	NRAS/KRAS (ratio of KD value with respect to NRAS to KD value with respect to KRAS) [2]	HRAS/KRAS (ratio of KD value with respect to HRAS to KD value with respect to KRAS) [3]	NRAS/KRAS (ratio of KD value for NRAS to KD value for KRAS) [2]	HRAS/KRAS (ratio of KD value for HRAS to KD value for KRAS) [3]	NRAS/KRAS (ratio of KD value with respect to GDP-bound NRAS wild-type protein to KD value with respect to KRAS) ([2]; SPR KD ratio NRAS/KRAS, class symbols)	HRAS/KRAS (ratio of KD value with respect to GDP-bound HRAS wild-type protein to KD value with respect to KRAS) ([3]; SPR KD ratio HRAS/KRAS, class symbols)
CC[C@H](C)[C@@H]1NC(=O)[C@H](CC)N(C)C(=O)C[C@@H](C(=O)N(C)C)N(CC)C(=O)[C@H](C2CCCC2)N(C)C(=O)C2(CCC2)NC(=O)[C@@H]2C[C@H](N3CCC(F)(F)CC3)CN2C(=O)[C@H](CCc2cc(F)c(C(F)(F)F)c(F)c2)NC(=O)CN(C)C(=O)[C@H](Cc2ccc(C(F)(F)F)cc2)N2CCCC[C@@H](C2=O)N(C)C(=O)CN(C)C1=O [PP0659]	0.42		B (a compound having 3 or more and less than 10 is denoted as B)	B (a compound having 3 or more and less than 10 is denoted as B)				
CCO[C@@H]1C[C@H]2C(=O)NC3(CCC3)C(=O)N(C)[C@@H](C3CCCC3)C(=O)N(CC)[C@H](C(=O)N3CCOCC3)CC(=O)N(C)[C@@H](CC(C)C)C(=O)N[C@@H]([C@@H](C)CC)C(=O)N(C)CC(=O)N(C)[C@H]3CCCCN(C3=O)[C@@H](Cc3ccc(C(F)(F)F)cc3)C(=O)N(C)CC(=O)N[C@@H](CCc3cc(F)c(C(F)(F)F)c(F)c3)C(=O)N2C1 [PP0648]	0.21		B (a compound having 3 or more and less than 10 is denoted as B)	B (a compound having 3 or more and less than 10 is denoted as B)				
CCC[C@H]1C(=O)N[C@@H]([C@@H](C)CC)C(=O)N(C2CC2)CC(=O)N(C)[C@H]2C/C=C\CCN(C2=O)[C@@H](Cc2ccc(C(F)(F)F)cc2)C(=O)N(C)CC(=O)N[C@@H](CCc2ccc(C(F)(F)F)c(OC)c2)C(=O)N2C[C@H](OCC)C[C@H]2C(=O)NC2(CC(C)(C)C2)C(=O)N(C)[C@@H](CC2CCC2)C(=O)N(C)[C@H](C(=O)N(C)C)CC(=O)N1C [PP2770]	5						A (a compound having 10 or more and less than 20 is denoted as A)	A (a compound having 10 or more and less than 20 is denoted as A)

More lines, main results first:

Kd [1, 4] [nM]	Kd ([1]; SPR, Single Cycle Kinetics) [nM]	SMILES	NRAS/KRAS (ratio of KD value with respect to NRAS to KD value with respect to KRAS) [2]	HRAS/KRAS (ratio of KD value with respect to HRAS to KD value with respect to KRAS) [3]	NRAS/KRAS (ratio of KD value for NRAS to KD value for KRAS) [2]	HRAS/KRAS (ratio of KD value for HRAS to KD value for KRAS) [3]	NRAS/KRAS (ratio of KD value with respect to GDP-bound NRAS wild-type protein to KD value with respect to KRAS) ([2]; SPR KD ratio NRAS/KRAS, class symbols)	HRAS/KRAS (ratio of KD value with respect to GDP-bound HRAS wild-type protein to KD value with respect to KRAS) ([3]; SPR KD ratio HRAS/KRAS, class symbols)
	0.18	CCO[C@@H]1C[C@H]2C(=O)NC3(CCC3)C(=O)N(C)[C@@H](C3CCCC3)C(=O)N(C)[C@H](C(=O)N(C)C)CC(=O)N(C)[C@H]3CCCCCc4ccc(cc4)C[C@@H](C(=O)N(C)CC(=O)N[C@@H](CCc4cc(F)c(C(F)(F)F)c(F)c4)C(=O)N2C1)N1CC/C=C\C[C@@H](C1=O)N(C)C(=O)CN(C)C(=O)[C@H]([C@@H](C)CC)NC3=O [PP2261]			A (a compound having 10 or more and less than 20 is denoted as A)	A (a compound having 10 or more and less than 20 is denoted as A)		
	7.2	CCO[C@@H]1C[C@H]2C(=O)NC3(CC=CC3)C(=O)N(C)[C@@H](C3CCCC3)C(=O)N(CC)[C@H](C(=O)N3CCOCC3)CC(=O)N(C)[C@@H](CC(C)C)C(=O)N[C@@H]([C@@H](C)CC)C(=O)N(C)CC(=O)N(C)[C@H]3CCCCCN(C3=O)[C@@H](Cc3ccc(C(F)(F)F)cc3)C(=O)N(C)CC(=O)N[C@@H](CCc3cc(F)c(C(F)(F)F)c(F)c3)C(=O)N2C1 [PP0956]			A (a compound having 10 or more and less than 20 is denoted as A)	A (a compound having 10 or more and less than 20 is denoted as A)		
0.35		CCCN1C(=O)CN(C)C(=O)CNC(=O)[C@H]([C@@H](C)CC)NC(=O)[C@H](CC(C)C)N(C)C(=O)C[C@@H](C(=O)N2CCOCC2)N(C)C(=O)[C@H](C2CCCC2)N(C)C(=O)C2(CCCC2)NC(=O)[C@@H]2C[C@H](C)CN2C(=O)[C@H](CCc2ccc(C(F)(F)F)c(Cl)c2)NC(=O)CN(C)C(=O)[C@@H]1Cc1ccc(C(F)(F)F)cc1 [PP0449] ([NMeL]IG[Sar][NPrPhe(4-CF3)][Sar][hPhe(3-Cl-4-CF3)][Pro(4S-Me)][Ac5c][NMeGly(cPent)][NMeD]-Morpholide; lactam N-11)	C (A compound having a KD ratio of 0.1 or more and less than 3 is denoted as C)	C (A compound having a KD ratio of 0.1 or more and less than 3 is denoted as C)				
0.034		CC[C@H](C)[C@@H]1NC(=O)[C@H](CC(C)C)N(C)C(=O)C[C@@H](C(=O)N2CCOCC2)N(C)C(=O)[C@H](C2CCCC2)N(C)C(=O)C2(CCCC2)NC(=O)[C@@H]2CCCN2C(=O)[C@H](CCc2ccc(C(F)(F)F)c(Cl)c2)NC(=O)CN(C)C(=O)[C@H](Cc2ccc(C(F)(F)F)cc2)N2CCCC[C@@H](C2=O)N(C)C(=O)CN(C)C1=O [PP0318]			B (a compound having 3 or more and less than 10 is denoted as B)	B (a compound having 3 or more and less than 10 is denoted as B)		
